Test results taken from patent US20210009564A1, “CALPAIN MODULATORS AND THERAPEUTIC USES THEREOF” (BLADE THERAPERTICS, INC., priority 2018, published 2021).

Key:
[1] = test system: Calpain activity in SH-SY5Y cells; experiment: SH-SY5Y spectrin breakdown product (SBDP-150) western blot assay; type: cell-based; conditions: Homo sapiens, read-out: SH-SY5Y Spectrin IC50
[2] = target: T1, Human Calpain 1/NS1 (Homo sapiens, UniProt P07384); experiment: Calpain inhibition, continuous fluorescence (FRET substrate) assay, calpain 1; type: biochemical; conditions: SensoLyte 520 FRET substrate, 25C
T1 sequence (P07384 1-714): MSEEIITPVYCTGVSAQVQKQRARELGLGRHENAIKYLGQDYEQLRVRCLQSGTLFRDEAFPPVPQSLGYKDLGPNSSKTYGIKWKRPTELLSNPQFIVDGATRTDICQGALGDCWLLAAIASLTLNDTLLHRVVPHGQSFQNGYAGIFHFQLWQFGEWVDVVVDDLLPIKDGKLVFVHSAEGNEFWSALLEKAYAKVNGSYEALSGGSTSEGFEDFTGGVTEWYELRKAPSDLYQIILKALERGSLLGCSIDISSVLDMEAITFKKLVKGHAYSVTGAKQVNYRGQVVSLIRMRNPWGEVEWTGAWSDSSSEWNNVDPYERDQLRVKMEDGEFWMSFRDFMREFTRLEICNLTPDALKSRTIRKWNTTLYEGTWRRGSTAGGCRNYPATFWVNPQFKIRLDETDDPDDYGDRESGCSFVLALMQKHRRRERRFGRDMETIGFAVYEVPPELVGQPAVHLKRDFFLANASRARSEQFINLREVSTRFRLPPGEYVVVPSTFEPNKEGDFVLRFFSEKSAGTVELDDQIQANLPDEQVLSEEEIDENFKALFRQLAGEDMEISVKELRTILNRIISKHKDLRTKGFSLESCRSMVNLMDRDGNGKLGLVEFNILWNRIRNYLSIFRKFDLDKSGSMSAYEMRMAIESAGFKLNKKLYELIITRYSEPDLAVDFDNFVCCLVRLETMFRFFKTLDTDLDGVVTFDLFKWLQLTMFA
T1 sequence (P04632 1-268 partner): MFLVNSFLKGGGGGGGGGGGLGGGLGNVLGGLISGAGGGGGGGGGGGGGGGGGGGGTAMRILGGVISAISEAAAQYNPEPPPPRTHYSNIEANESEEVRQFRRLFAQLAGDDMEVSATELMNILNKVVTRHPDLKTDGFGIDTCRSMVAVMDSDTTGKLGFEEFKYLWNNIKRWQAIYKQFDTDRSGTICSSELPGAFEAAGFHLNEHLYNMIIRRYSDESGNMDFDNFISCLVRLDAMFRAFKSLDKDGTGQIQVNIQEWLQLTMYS
Protocol: (§1) Calpain 1, 2, and 9 activity and inhibition thereof was assessed by means of a continuous fluorescence assay. The SensoLyte 520 Calpain substrate (Anaspec Inc) was optimized for detecting calpain activity. This substrate contains an internally quenched 5-FAM/QXLTM 520 FRET pair. Calpains 1, 2, and 9 cleave the FRET substrate into two separate fragments resulting in an increase of 5-FAM fluorescence that is proportional to calpain activity Assays were typically setup in black 384-well plates using automated liquid handling as follows. Calpain assay base buffer typically contains 50 mM Tris, pH 7.5, 100 mM NaCl and 1 mM DTT. Inhibitors were serially diluted in DMSO and used to setup 2× mixtures with calpains in the aforementioned buffer. After incubation at ambient temperature (25C), the reaction was initiated by adding a 2× mix of the fluorescent peptide substrate and CaCl2) (required for in-situ calpain activation) in the same buffer. Reaction progress curve data were typically collected for 10 min using excitation/emission wavelengths of 490 nm/520 nm on SpectraMax i3× or the FLIPR-Tetra plate readers (Molecular Devices Inc). Reaction rates were calculated from progress curve slopes typically over 1-5 min. Dose response curves (rate vs. log inhibitor concentration) were typically fit to a 4-parameter logistic function to extract IC50 values.

[3] = target: T2, Human Calpain 2/NS1 (Homo sapiens, UniProt P17655); experiment: Calpain inhibition, continuous fluorescence (FRET substrate) assay, calpain 2; type: biochemical; conditions: SensoLyte 520 FRET substrate, 25C
T2 sequence (P17655 1-700): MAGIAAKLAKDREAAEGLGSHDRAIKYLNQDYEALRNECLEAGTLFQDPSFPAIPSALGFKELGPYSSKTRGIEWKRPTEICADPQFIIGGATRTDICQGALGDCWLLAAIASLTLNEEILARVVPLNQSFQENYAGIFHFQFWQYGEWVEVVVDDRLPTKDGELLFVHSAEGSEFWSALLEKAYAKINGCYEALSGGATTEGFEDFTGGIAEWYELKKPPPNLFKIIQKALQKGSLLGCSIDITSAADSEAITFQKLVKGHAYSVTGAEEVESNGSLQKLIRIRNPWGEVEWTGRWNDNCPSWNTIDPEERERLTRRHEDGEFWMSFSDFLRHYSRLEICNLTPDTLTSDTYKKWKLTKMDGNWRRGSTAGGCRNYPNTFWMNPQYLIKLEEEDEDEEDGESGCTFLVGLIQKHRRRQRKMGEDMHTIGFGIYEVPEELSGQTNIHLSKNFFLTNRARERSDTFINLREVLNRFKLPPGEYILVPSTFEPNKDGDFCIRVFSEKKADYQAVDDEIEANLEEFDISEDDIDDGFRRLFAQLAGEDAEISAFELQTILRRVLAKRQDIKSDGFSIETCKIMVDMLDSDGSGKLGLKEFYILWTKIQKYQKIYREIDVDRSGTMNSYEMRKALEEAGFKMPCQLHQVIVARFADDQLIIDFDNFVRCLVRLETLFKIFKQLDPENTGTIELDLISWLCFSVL
T2 sequence (P04632 1-268 partner): T1 sequence (P04632 1-268 partner)
Protocol: as §1

[4] = target: T3, Human Calpain 9/NS1 (Homo sapiens, UniProt O14815); experiment: Calpain inhibition, continuous fluorescence (FRET substrate) assay, calpain 9; type: biochemical; conditions: SensoLyte 520 FRET substrate, 25C
T3 sequence (O14815 1-690): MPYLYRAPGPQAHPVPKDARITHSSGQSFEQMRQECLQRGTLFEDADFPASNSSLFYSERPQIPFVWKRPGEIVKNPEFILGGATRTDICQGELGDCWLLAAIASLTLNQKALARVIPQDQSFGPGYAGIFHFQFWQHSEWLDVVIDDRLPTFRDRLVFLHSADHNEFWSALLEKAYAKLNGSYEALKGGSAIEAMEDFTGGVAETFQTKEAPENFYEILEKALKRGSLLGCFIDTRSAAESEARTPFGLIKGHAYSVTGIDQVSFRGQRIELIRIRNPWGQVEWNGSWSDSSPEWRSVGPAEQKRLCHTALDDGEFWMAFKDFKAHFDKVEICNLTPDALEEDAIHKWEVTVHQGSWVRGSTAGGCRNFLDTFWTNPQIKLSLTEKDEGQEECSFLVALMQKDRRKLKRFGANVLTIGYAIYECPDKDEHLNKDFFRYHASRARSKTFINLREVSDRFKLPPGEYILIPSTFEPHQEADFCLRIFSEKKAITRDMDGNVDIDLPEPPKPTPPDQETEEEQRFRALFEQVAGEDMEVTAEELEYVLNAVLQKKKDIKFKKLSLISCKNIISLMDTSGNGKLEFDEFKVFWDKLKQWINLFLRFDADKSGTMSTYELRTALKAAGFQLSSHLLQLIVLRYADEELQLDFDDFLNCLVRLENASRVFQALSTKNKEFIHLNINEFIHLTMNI
T3 sequence (P04632 1-268 partner): T1 sequence (P04632 1-268 partner)
Protocol: as §1

[5] = test system: Calpain activity in SH-SY5Y cells; experiment: SH-SY5Y Suc-LLVY-AMC fluorescence assay; type: cell-based; conditions: Homo sapiens, read-out: SH-SY5Y + AMC IC50
[6] = SH-SY5Y cells, 25 uM A23187, SBDP-150 western blot
[7] = SH-SY5Y cells, 100 uM Suc-LLVY-AMC

| SMILES | IC50 [1, 6] | IC50 [2] | IC50 [3] | IC50 [4] | IC50 [5, 7] | IC50 ([1]; SH-SY5Y) | IC50 ([5]; SH-SY5Y) |
| --- | --- | --- | --- | --- | --- | --- | --- |
| Cn1cc(C(=O)NC(Cc2ccccc2)C(=O)C(N)=O)c(-c2cccc3cccnc23)n1 (stereo not shown) [Compound 14] | > 25 µM | < 3 µM | < 3 µM | < 3 µM | > 25 µM |  |  |
| Cn1cc(C(=O)NC(Cc2ccccc2)C(=O)C(N)=O)c(-c2cc(Cl)oc2Cl)n1 (stereo not shown) [Compound 15, N-(4-AMINO-3,4-DIOXO-1-PHENYLBUTAN-2-YL)-3-(2,5-DICHLOROFURAN-3-YL)-1-METHYL-1H-PYRAZOLE-4-CARBOXAMIDE] | 10 to 25 µM | < 3 µM | < 3 µM | < 3 µM | < 10 µM |  |  |
| Cn1cc(C(=O)NC(Cc2ccccc2)C(=O)C(N)=O)c(-c2cccc3[nH]ncc23)n1 (stereo not shown) [Compound 16, N-(4-AMINO-3,4-DIOXO-1-PHENYLBUTAN-2-YL)-3-(1H-INDAZOL-4-YL)-1-METHYL-1H-PYRAZOLE-4-CARBOXAMIDE] | 10 to 25 µM | < 3 µM | < 3 µM | < 3 µM | 10 to 25 µM |  |  |
| CNC(=O)c1cccc(-c2nn(C)cc2C(=O)NC(Cc2ccccc2)C(=O)C(N)=O)c1 (stereo not shown) [Compound 17] |  | < 3 µM | < 3 µM | < 3 µM |  | > 25 µM | 10 to 25 µM |
| NC(=O)C(=O)C(Cc1ccccc1)NC(=O)c1cn(C(F)F)nc1-c1cccc2cccnc12 (stereo not shown) [Compound 18, N-(4-AMINO-3,4-DIOXO-1-PHENYLBUTAN-2-YL)-1-(DIFLUOROMETHYL)-3-(QUINOLIN-8-YL)-1H-PYRAZOLE-4-CARBOXAMIDE] | > 25 µM | < 3 µM | < 3 µM | < 3 µM | < 10 µM |  |  |
| Cn1cc(C(=O)NC(Cc2ccccc2)C(=O)C(N)=O)c(-c2ccoc2Cl)n1 (stereo not shown) [Compound 19, N-(4-AMINO-3,4-DIOXO-1-PHENYLBUTAN-2-YL)-3-(2-CHLOROFURAN-3-YL)-1-METHYL-1H-PYRAZOLE-4-CARBOXAMIDE] | > 25 µM | < 3 µM | < 3 µM | < 3 µM | < 10 µM |  |  |
| NC(=O)C(=O)C(Cc1ccccc1)NC(=O)c1cn(C(F)F)nc1-c1ccoc1Cl (stereo not shown) [Compound 20, N-(4-AMINO-3,4-DIOXO-1-PHENYLBUTAN-2-YL)-3-(2-CHLOROFURAN-3-YL)-1-(DIFLUOROMETHYL)-1H-PYRAZOLE-4-CARBOXAMIDE] | < 10 µM | < 3 µM | < 3 µM | < 3 µM | < 10 µM |  |  |
| NC(=O)C(=O)C(Cc1ccccc1)NC(=O)c1cn(C(F)F)nc1-c1coc(Cl)c1 (stereo not shown) [Compound 21, N-(4-AMINO-3,4-DIOXO-1-PHENYLBUTAN-2-YL)-3-(5-CHLOROFURAN-3-YL)-1-(DIFLUOROMETHYL)-1H-PYRAZOLE-4-CARBOXAMIDE] | < 10 µM | < 3 µM | < 3 µM | < 3 µM | < 10 µM |  |  |
| NC(=O)C(=O)C(Cc1ccccc1)NC(=O)c1cn(C(F)F)nc1-c1cccc2ccncc12 (stereo not shown) [Compound 22, N-(4-AMINO-3,4-DIOXO-1-PHENYLBUTAN-2-YL)-1-(DIFLUOROMETHYL)-3-(ISOQUINOLIN-8-YL)-1H-PYRAZOLE-4-CARBOXAMIDE] | < 10 µM | < 3 µM | < 3 µM | < 3 µM | < 10 µM |  |  |
| Cc1cc(-c2nsnc2C(=O)NC(Cc2ccccc2)C(=O)C(N)=O)c(C)o1 (stereo not shown) [Compound 23, N-(4-AMINO-3,4-DIOXO-1-PHENYLBUTAN-2-YL)-4-(2,5-DIMETHYLFURAN-3-YL)-1,2,5-THIADIAZOLE-3-CARBOXAMIDE] | < 10 µM | < 3 µM | < 3 µM | < 3 µM | < 10 µM |  |  |
| Cc1cc(-c2nn(C(F)F)cc2C(=O)NC(Cc2ccccc2)C(=O)C(N)=O)c(C)o1 (stereo not shown) [Compound 24, N-(4-AMINO-3,4-DIOXO-1-PHENYLBUTAN-2-YL)-1-(DIFLUOROMETHYL)-3-(2,5-DIMETHYLFURAN-3-YL)-1H-PYRAZOLE-4-CARBOXAMIDE] | 10 to 25 µM | < 3 µM | < 3 µM | < 3 µM | < 10 µM |  |  |
| Cc1occc1-c1nn(C(F)F)cc1C(=O)NC(Cc1ccccc1)C(=O)C(N)=O (stereo not shown) [Compound 26, N-(4-AMINO-3,4-DIOXO-1-PHENYLBUTAN-2-YL)-1-(DIFLUOROMETHYL)-3-(2-METHYLFURAN-3-YL)-1H-PYRAZOLE-4-CARBOXAMIDE] | < 10 µM | < 3 µM | < 3 µM | < 3 µM | < 10 µM |  |  |
| Cc1cc(C(=O)NC(Cc2ccccc2)C(=O)C(N)=O)nn1-c1ncc2ccccc2n1 (stereo not shown) [Compound 27, N-(4-AMINO-3,4-DIOXO-1-PHENYLBUTAN-2-YL)-5-METHYL-1-(QUINAZOLIN-2-YL)-1H-PYRAZOLE-3-CARBOXAMIDE] | > 25 µM | > 10 µM | 3 to 10 µM | 3 to 10 µM | < 10 µM |  |  |
| Cc1occc1-c1nn(C)cc1C(=O)NC(Cc1ccccc1)C(=O)C(N)=O (stereo not shown) [Compound 28, N-(4-AMINO-3,4-DIOXO-1-PHENYLBUTAN-2-YL)-1-METHYL-3-(2-METHYLFURAN-3-YL)-1H-PYRAZOLE-4-CARBOXAMIDE] | > 25 µM | < 3 µM | < 3 µM | < 3 µM | < 10 µM |  |  |
